{
  "source": "patent US20020183383A1",
  "about": "“Pharmaceutical compositions” (priority 2001, published 2002)",
  "key": {"[1]": {"tested_on": "subjects with primary hypercholesterolemia", "assay": "Multicenter, double-blind, placebo-controlled, parallel study of lipid (LDL-C, TC, HDL-C, TG) lowering efficacy of once-daily pravastatin 40-160 mg", "format": "in vivo, human", "details": "for HDL-C % Δ, adjusted percent change from baseline (ANCOVA) / LDL-C (calculated) % Δ, adjusted percent change from baseline (ANCOVA) / TC % Δ, adjusted percent change from baseline (ANCOVA) / TG % Δ, adjusted percent change from baseline (ANCOVA) / increase in HDL-C / mean reduction in TC / mean reduction in TG: Week 6; for mean reduction in LDL-C: 6 weeks of treatment", "procedure": "A Multicenter, Double-Blind, Placebo-Controlled, Parallel Study to Determine the LDL-C Lowering Efficacy of Pravastatin Administered Once Daily Over the Dosage Range of 40 mg Through 160 mg.\n(§1) Objectives: The primary objective of this study was to evaluate the dose-related cholesterol (LDL-C) lowering efficacy of pravastatin 40 mg, 80 mg and 160 mg after 6 weeks of once-daily oral administration in subjects with primary hypercholesterolemia. Secondary objectives were: 1) to evaluate the dose-related changes in serum total cholesterol (TC), high-density lipoprotein cholesterol (HDL-C), and triglycerides (TG) concentrations after 6 weeks of once-daily oral administration of pravastatin 40 mg, 80 mg and 160 mg in subjects with primary hypercholesterolemia; 2) to estimate the dose-related changes in serum LDL-C, TC, HDL-C, and TG concentrations after 2 weeks and 4 weeks of once-daily oral administration of pravastatin 40 mg, 80 mg and 160 mg in subjects with primary hypercholesterolemia; and 3) to ascertain the safety and tolerability of the treatment regimens after 6 weeks of once-daily oral administration of pravastatin 40 mg, 80 mg and 160 mg in subjects with primary hypercholesterolemia.\nDuration of Treatment: 6 weeks\n(§2) Study Design and Methodology: This study was a multicenter, randomized, double-blind placebo-controlled, parallel design trial to determine the LDL-C lowering efficacy of pravastatin over a dose range of 40-160 mg in subjects with primary hypercholesterolemia. After at least 2 weeks of dietary stabilization and discontinuation of any previous lipid-lowering agents for a minimum of 4 weeks, subjects entered into a 4-week single-blind placebo lead-in period. At the end of the placebo lead-in period, subjects with mean serum LDL-C≧160 mg/dL and mean serum TG≦500 mg/dL were randomized (1:1:1:1) to one of four treatment groups: pravastatin 40 mg, pravastatin 80 mg, pravastatin 160 mg or placebo. Blinded treatment was administered once-daily at bedtime for 6 weeks.\nNumber of Subjects: 190 randomized; 189 received randomized study drug, 184 completed the study.\nDiagnosis and Main Criteria for Inclusion: Consenting men, or postmenopausal and surgically sterile women, aged 18 through 65 years were eligible to enroll in the study if they met the following criteria: 1) mean serum LDL-C≧160 mg/dL (the LDL-C concentration of the lower qualifying specimen were to be within 15% of the higher qualifying specimen) and 2) mean serum TG≦500 mg/dL obtained from two consecutive qualifying specimens.\nTest Product, dose, mode of administration: pravastatin, 40 mg tablets, oral\nPrimary Efficacy Outcome Measure:\nChange from baseline in calculated serum LDL-C at Week 6 of double-blind treatment.\nSecondary Efficacy Outcome Measures:\nChange from baseline in serum LDL-C at Weeks 2 and 4 of double blind treatment.\nChange from baseline in serum TC, HDL-C, and TG at Weeks 2,4, and 6 of double-blind treatment.\nAnalyses of covariance with terms for treatment and baseline.\nA contrast of the dose groups from the analysis of covariance model."}, "[2]": {"tested_on": "subjects with primary hypercholesterolemia", "assay": "Safety and tolerability in the same 6-week clinical study (adverse events, laboratory analyses)", "format": "in vivo, human", "procedure": "as §1, §2\nMedical history, physical examinations, laboratory analyses, and clinical adverse events (AEs)."}, "[3]": {"details": "pravastatin 40 mg once daily, Week 6, N=45"}, "[4]": {"details": "pravastatin 80 mg once daily, Week 6, N=48"}, "[5]": {"details": "pravastatin 160 mg once daily, Week 6, N=48"}, "[6]": {"details": "pravastatin 40 mg once daily, 6 weeks, N=46"}, "[7]": {"details": "pravastatin 80 mg once daily, 6 weeks, N=49"}, "[8]": {"details": "pravastatin 160 mg once daily, 6 weeks, N=48"}},
  "data": [
    {"smiles": "CC[C@H](C)C(=O)O[C@H]1C[C@H](O)C=C2C=C[C@H](C)[C@H](CC[C@@H](O)C[C@@H](O)CC(=O)O)[C@H]21", "note": "[Pravastatin, Pravastatin sodium]", "values": [
      {"measurement": "absolute reduction in LDL cholesterol as the dose was doubled", "setting": "[1]; dose doubled from 40 mg to 80 mg, and again from 80 mg to 160 mg", "value": "greater than 6%"},
      {"measurement": "additional LDL-C lowering with every doubling of the dose", "setting": "[1]; doses of 40-160 mg once daily, 6 weeks", "value": 8, "unit": "%"},
      {"measurement": "LDL-C (calculated) Week 6 Mean", "setting": "[1]; pravastatin 40 mg once daily oral at bedtime, Week 6, N=45", "value": 139.0, "unit": "mg/dL"},
      {"measurement": "HDL-C % Δ, adjusted percent change from baseline (ANCOVA)", "setting": "[1]; pravastatin 40 mg once daily", "value": 11.4, "unit": "%"},
      {"measurement": "LDL-C (calculated) % Δ, adjusted percent change from baseline (ANCOVA)", "setting": "[1]; pravastatin 40 mg once daily", "value": "−28.6", "unit": "%"},
      {"measurement": "TC % Δ, adjusted percent change from baseline (ANCOVA)", "setting": "[1]; pravastatin 40 mg once daily", "value": "−20.0", "unit": "%"},
      {"measurement": "TG % Δ, adjusted percent change from baseline (ANCOVA)", "setting": "[1]; pravastatin 40 mg once daily", "value": "−15.8", "unit": "%"},
      {"measurement": "HDL-C Week 6 Mean", "setting": "[1]; [3]", "value": 52.8, "unit": "mg/dL"},
      {"measurement": "TC Week 6 Mean", "setting": "[1]; [3]", "value": 219.8, "unit": "mg/dL"},
      {"measurement": "TG Week 6 Mean", "setting": "[1]; [3]", "value": 140.9, "unit": "mg/dL"},
      {"measurement": "mean reduction in LDL-C", "setting": "[1]; pravastatin 40 mg", "value": 29, "unit": "%"},
      {"measurement": "increase in HDL-C", "setting": "[1]; pravastatin 40 mg", "value": 11.4, "unit": "%"},
      {"measurement": "mean reduction in TC", "setting": "[1]; pravastatin 40 mg", "value": 20, "unit": "%"},
      {"measurement": "mean reduction in TG", "setting": "[1]; pravastatin 40 mg", "value": 16, "unit": "%"},
      {"measurement": "LDL-C (calculated) Week 6 Mean", "setting": "[1]; pravastatin 80 mg once daily oral at bedtime, Week 6, N=48", "value": 124.7, "unit": "mg/dL"},
      {"measurement": "HDL-C % Δ, adjusted percent change from baseline (ANCOVA)", "setting": "[1]; pravastatin 80 mg once daily", "value": 8.4, "unit": "%"},
      {"measurement": "LDL-C (calculated) % Δ, adjusted percent change from baseline (ANCOVA)", "setting": "[1]; pravastatin 80 mg once daily", "value": "−36.7", "unit": "%"},
      {"measurement": "TC % Δ, adjusted percent change from baseline (ANCOVA)", "setting": "[1]; pravastatin 80 mg once daily", "value": "−26.3", "unit": "%"},
      {"measurement": "TG % Δ, adjusted percent change from baseline (ANCOVA)", "setting": "[1]; pravastatin 80 mg once daily", "value": "−14.2", "unit": "%"},
      {"measurement": "HDL-C Week 6 Mean", "setting": "[1]; [4]", "value": 45.0, "unit": "mg/dL"},
      {"measurement": "TC Week 6 Mean", "setting": "[1]; [4]", "value": 201.6, "unit": "mg/dL"},
      {"measurement": "TG Week 6 Mean", "setting": "[1]; [4]", "value": 158.8, "unit": "mg/dL"},
      {"measurement": "mean reduction in LDL-C", "setting": "[1]; pravastatin 80 mg", "value": 37, "unit": "%"},
      {"measurement": "increase in HDL-C", "setting": "[1]; pravastatin 80 mg", "value": 8.4, "unit": "%"},
      {"measurement": "mean reduction in TC", "setting": "[1]; pravastatin 80 mg", "value": 26, "unit": "%"},
      {"measurement": "mean reduction in TG", "setting": "[1]; pravastatin 80 mg", "value": 14, "unit": "%"},
      {"measurement": "LDL-C (calculated) Week 6 Mean", "setting": "[1]; pravastatin 160 mg once daily oral at bedtime, Week 6, N=47", "value": 108.4, "unit": "mg/dL"},
      {"measurement": "HDL-C % Δ, adjusted percent change from baseline (ANCOVA)", "setting": "[1]; pravastatin 160 mg once daily", "value": 9.6, "unit": "%"},
      {"measurement": "LDL-C (calculated) % Δ, adjusted percent change from baseline (ANCOVA)", "setting": "[1]; pravastatin 160 mg once daily", "value": "−45.2", "unit": "%"},
      {"measurement": "TC % Δ, adjusted percent change from baseline (ANCOVA)", "setting": "[1]; pravastatin 160 mg once daily", "value": "−34.2", "unit": "%"},
      {"measurement": "TG % Δ, adjusted percent change from baseline (ANCOVA)", "setting": "[1]; pravastatin 160 mg once daily", "value": "−26.9", "unit": "%"},
      {"measurement": "HDL-C Week 6 Mean", "setting": "[1]; [5]", "value": 46.4, "unit": "mg/dL"},
      {"measurement": "TC Week 6 Mean", "setting": "[1]; [5]", "value": 181.3, "unit": "mg/dL"},
      {"measurement": "TG Week 6 Mean", "setting": "[1]; [5]", "value": 132.0, "unit": "mg/dL"},
      {"measurement": "mean reduction in LDL-C", "setting": "[1]; pravastatin 160 mg", "value": 45, "unit": "%"},
      {"measurement": "increase in HDL-C", "setting": "[1]; pravastatin 160 mg", "value": 9.6, "unit": "%"},
      {"measurement": "mean reduction in TC", "setting": "[1]; pravastatin 160 mg", "value": 34, "unit": "%"},
      {"measurement": "mean reduction in TG", "setting": "[1]; pravastatin 160 mg", "value": 27, "unit": "%"},
      {"measurement": "subjects with CK elevation >4×ULN", "setting": "[2]; 40 mg pravastatin (one subject)", "value": 2.2, "unit": "%"},
      {"measurement": "subjects discontinued due to gastrointestinal events considered possibly related to study drug", "setting": "[2]; 160 mg pravastatin treatment group (two subjects)", "value": 1.4, "unit": "%"},
      {"measurement": "tolerability / safety in words", "setting": "[2]; 40, 80 and 160 mg once daily for 6 weeks", "value": "appears safe and well tolerated"},
      {"measurement": "deaths or serious adverse events in the study", "setting": "[2]; all treatment groups, 6 weeks", "value": "no deaths or serious adverse events"},
      {"measurement": "marked abnormalities (MAs) for ALT and AST", "setting": "[2]; all treatment groups, 6 weeks", "value": "No marked abnormalities"},
      {"measurement": "Number of randomized subjects with ADE (adverse drug experience), n (%)", "setting": "[2]; [6]", "value": "5 (10.9%)"},
      {"measurement": "Number of randomized subjects with AE (total), n (%)", "setting": "[2]; [6]", "value": "19 (43%)"},
      {"measurement": "Number of randomized subjects with Discontinuations, n (%)", "setting": "[2]; [6]", "value": 0},
      {"measurement": "Number of randomized subjects with SAE (serious adverse event)", "setting": "[2]; [6]", "value": 0},
      {"measurement": "Number of randomized subjects with ADE (adverse drug experience), n (%)", "setting": "[2]; [7]", "value": "14 (28.6%)"},
      {"measurement": "Number of randomized subjects with AE (total), n (%)", "setting": "[2]; [7]", "value": "24 (49.0%)"},
      {"measurement": "Number of randomized subjects with Discontinuations, n (%)", "setting": "[2]; [7]", "value": 0},
      {"measurement": "Number of randomized subjects with SAE (serious adverse event)", "setting": "[2]; [7]", "value": 0},
      {"measurement": "frequency of adverse events by body system", "setting": "[2]; pravastatin 160 mg dose", "value": "higher frequency of adverse events in the gastrointestinal and respiratory body systems"},
      {"measurement": "Number of randomized subjects with ADE (adverse drug experience), n (%)", "setting": "[2]; [8]", "value": "17 (35.4%)"},
      {"measurement": "Number of randomized subjects with AE (total), n (%)", "setting": "[2]; [8]", "value": "29 (60.4%)"},
      {"measurement": "Number of randomized subjects with Discontinuations, n (%)", "setting": "[2]; [8]", "value": "2 (1.4%)"},
      {"measurement": "Number of randomized subjects with SAE (serious adverse event)", "setting": "[2]; [8]", "value": 0}
    ]}
  ]
}
